The values that follow come from publication PMC3226499, “Environmental Impact on Vascular Development Predicted by High-Throughput Screening” (Environmental Health Perspectives, 2011).

One data set deals with mouse. Conditions: cited from earlier work.
In data set [1] the test system is six prioritized vascular targets (VEGFR2, TIE2, CCL2, PAI-1, CXCL10, uPAR). Description: Vascular bioactivity score (VBS): weighted sum of activity across 23 ToxCast assays. Details: species or system human.
A further data set relates to CCL2. Nature of the data set: BioMAP protein readout: CCL2 down-regulation. Format: cell-based, human. From the text: (§1) Source data. […] Assays measured direct interactions between chemicals and molecular targets (receptors, enzymes), as well as downstream effects on reporter gene activity or cellular consequences. […] The perturbation scores are a method of aggregating assays into groups and providing a higher-level view of chemical activity across important signaling pathways.
(§2) Identifying pVDCs. Six assay targets emerged as most relevant to embryonic blood vessel formation based on biological plausibility and prevalence in the VasculoDB literature. These targets have been previously identified, based on murine knockout models or significant associations between biomarker data and adverse pregnancy effects, as critical to proper embryonic blood vessel formation or maternal–fetal placental circulation. In order of descending influence (with corresponding references highlighting their importance to vascular development), these were down-regulation of the receptor tyrosine kinase (RTK) VEGFR2 ([Drake et al. 2007]); inhibition of the enzymatic activity of TIE2, an angiogenic RTK ([Patan 1998]); down-regulation of the proangiogenic chemokine CCL2 ([Keeley et al. 2008]); perturbation of the plasminogen-activating system (PAS) controlling extracellular matrix breakdown via up- or down-regulation of plasminogen activator inhibitor type 1 (PAI-1/SERPINE1) ([Behzadian et al. 2003]); up-regulation of the proinflammatory antiangiogenic chemokine CXCL10 ([Romagnani et al. 2001]); and perturbation of the PAS via up- or down-regulation of urokinase-type plasminogen activator receptor (uPAR/PLAUR) ([D’Alessio and Blasi 2009]).
(§3) As predicted, thalidomide and 5HPP-33 were active across most of the pVDC signature assay targets. […] 5HPP-33 also had effects on uPAR in the endothelial cell system at 10 µM. […] Both compounds, however, fell above the mean VBS cutoff and would be classified as pVDCs based on in vitro activity for vascular targets identified by the ToxCast data and chemicals. […] Thus, our findings with reference compounds known to be antiangiogenic support the contention that VBS is an effective metric for vascular disruption.

The test system of the next data set is CXCL10. Description: BioMAP protein readout: CXCL10 up-regulation. Format: cell-based, human.
From the text: as §1
Identifying pVDCs. Six assay targets emerged as most relevant to embryonic blood vessel formation based on biological plausibility and prevalence in the VasculoDB literature. These targets have been previously identified, based on murine knockout models or significant associations between biomarker data and adverse pregnancy effects, as critical to proper embryonic blood vessel formation or maternal–fetal placental circulation. […]

Another data set relates to uPAR. Description: BioMAP protein readout: uPAR up- and down-regulation. In kind it is cell-based, human.
From the text: as §1, §2, §3

The next data set concerns PAI-1. Nature of the data set: BioMAP protein readout: PAI-1 up- and down-regulation. In kind it is cell-based, human.
From the text: as §1, §2, §3

Data set [2] has as its system human umbilical vein endothelial cell. Details: method as in Noguchi et al. 2005. Conditions: ref Noguchi et al. 2005; cited from earlier work.
Another data set concerns the target TIE2 (Homo sapiens, UniProt Q02763). Description: TIE2 cell-free biochemical assay.
The target in the next data set is PTEN (Homo sapiens, UniProt P60484). Nature of the data set: PTEN biochemical assay. Particulars: read-out: PTEN AC50.
The next data set has as its target PI3Ka (Homo sapiens, UniProt P42336). Nature of the data set: PI3Ka biochemical assay.
Another data set addresses VEGFR1 (Homo sapiens, UniProt P17948). Nature of the data set: VEGFR1 biochemical assay. Particulars: read-out: VEGFR1 AC50.
The next data set deals with VEGFR2 (Homo sapiens, UniProt P35968). Nature of the data set: VEGFR2 biochemical assay. Conditions: read-out: VEGFR2 AC50; biochemical.
The next data set has as its target VEGFR3 (Homo sapiens, UniProt P35916). Nature of the data set: VEGFR3 biochemical assay. Particulars: read-out: VEGFR3 AC50.
In the next data set the target is T1, EphB2 (Homo sapiens, UniProt P29323).
T1 sequence (P29323 569-986 isoform P29323-2 limits assumed): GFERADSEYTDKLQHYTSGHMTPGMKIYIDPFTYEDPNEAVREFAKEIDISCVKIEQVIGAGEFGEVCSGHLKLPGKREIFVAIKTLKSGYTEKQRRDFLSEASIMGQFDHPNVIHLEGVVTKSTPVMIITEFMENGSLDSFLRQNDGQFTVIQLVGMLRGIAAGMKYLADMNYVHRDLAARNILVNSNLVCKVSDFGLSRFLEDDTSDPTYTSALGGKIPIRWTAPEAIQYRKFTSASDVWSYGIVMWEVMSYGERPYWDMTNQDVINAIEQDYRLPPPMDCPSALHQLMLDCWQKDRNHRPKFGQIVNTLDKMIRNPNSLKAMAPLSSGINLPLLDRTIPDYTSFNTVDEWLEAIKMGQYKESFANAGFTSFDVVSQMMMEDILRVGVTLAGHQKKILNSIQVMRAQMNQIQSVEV
Nature of the data set: EphB2 biochemical assay. Conditions: read-out: EphB2 AC50.

The test system of data set [3] is VEGF expression and VEGFR2 phosphorylation. Details: method as in Joussen et al. 2001; Satchi-Fainaro et al. 2005. Particulars: ocular vasculature; ref Joussen et al. 2001; Satchi-Fainaro et al. 2005; cited from earlier work.
A further data set relates to murine pregnancy. Conditions: administered early or late in murine pregnancy, respectively; ref Rutland et al. 2005; cited from earlier work.
A further data set deals with rat/rabbit. Conditions: in vivo; cited from earlier work.
Data set [4] relates to rat. Conditions: in vivo; cited from earlier work.
Data set [5] has as its system rat. Particulars: cited from earlier work.
A further data set deals with various species. Conditions: cited from earlier work.
In data set [6] the test system is placental vascular remodeling. Conditions: rats; correlated with decreased expression of TIE2 mRNA; ref Ishimura et al. 2009; cited from earlier work.
Another data set deals with pregnant rats. Particulars: rat-specific effects in ToxRefDB prenatal studies; ref U.S. EPA 2010b; cited from earlier work.
Where [7] appears, read: ToxRefDB end points, ref U.S. EPA 2010b.
Setting [8] is: read-out: TIE2 AC50, repeat of the TIE2 assay from the original data series.
[9] abbreviates: species and reference printed with each result.

Read-outs that look alike come from different tables or passages of the source.

Chain of PI3Ka (P42336 whole entry): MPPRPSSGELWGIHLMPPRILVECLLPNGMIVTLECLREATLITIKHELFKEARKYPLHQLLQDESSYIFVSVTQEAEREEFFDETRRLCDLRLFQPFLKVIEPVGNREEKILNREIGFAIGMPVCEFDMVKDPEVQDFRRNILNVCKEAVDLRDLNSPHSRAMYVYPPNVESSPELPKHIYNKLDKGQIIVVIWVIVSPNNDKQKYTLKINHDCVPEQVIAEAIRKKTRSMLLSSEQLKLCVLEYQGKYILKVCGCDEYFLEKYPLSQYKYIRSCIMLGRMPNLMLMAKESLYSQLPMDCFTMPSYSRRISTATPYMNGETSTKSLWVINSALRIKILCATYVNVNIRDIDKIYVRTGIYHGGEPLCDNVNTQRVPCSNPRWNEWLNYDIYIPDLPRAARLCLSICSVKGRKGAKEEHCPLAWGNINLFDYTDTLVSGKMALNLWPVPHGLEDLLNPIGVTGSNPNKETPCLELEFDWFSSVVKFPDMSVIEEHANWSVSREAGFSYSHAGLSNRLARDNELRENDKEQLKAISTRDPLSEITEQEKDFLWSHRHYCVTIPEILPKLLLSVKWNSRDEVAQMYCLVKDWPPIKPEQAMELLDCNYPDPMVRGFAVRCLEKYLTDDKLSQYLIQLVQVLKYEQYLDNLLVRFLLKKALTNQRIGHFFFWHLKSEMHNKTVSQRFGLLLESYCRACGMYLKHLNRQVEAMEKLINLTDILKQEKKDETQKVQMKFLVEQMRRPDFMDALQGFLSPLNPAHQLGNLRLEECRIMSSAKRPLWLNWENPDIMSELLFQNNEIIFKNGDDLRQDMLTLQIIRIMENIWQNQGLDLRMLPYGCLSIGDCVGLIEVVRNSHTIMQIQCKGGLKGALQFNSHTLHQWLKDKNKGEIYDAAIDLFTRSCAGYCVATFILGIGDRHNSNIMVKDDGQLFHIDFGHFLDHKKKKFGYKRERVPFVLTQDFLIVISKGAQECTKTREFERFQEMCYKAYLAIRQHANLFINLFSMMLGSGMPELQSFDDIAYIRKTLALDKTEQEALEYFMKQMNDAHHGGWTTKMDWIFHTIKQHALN
Chain of PI3Ka (P27986 whole entry partner): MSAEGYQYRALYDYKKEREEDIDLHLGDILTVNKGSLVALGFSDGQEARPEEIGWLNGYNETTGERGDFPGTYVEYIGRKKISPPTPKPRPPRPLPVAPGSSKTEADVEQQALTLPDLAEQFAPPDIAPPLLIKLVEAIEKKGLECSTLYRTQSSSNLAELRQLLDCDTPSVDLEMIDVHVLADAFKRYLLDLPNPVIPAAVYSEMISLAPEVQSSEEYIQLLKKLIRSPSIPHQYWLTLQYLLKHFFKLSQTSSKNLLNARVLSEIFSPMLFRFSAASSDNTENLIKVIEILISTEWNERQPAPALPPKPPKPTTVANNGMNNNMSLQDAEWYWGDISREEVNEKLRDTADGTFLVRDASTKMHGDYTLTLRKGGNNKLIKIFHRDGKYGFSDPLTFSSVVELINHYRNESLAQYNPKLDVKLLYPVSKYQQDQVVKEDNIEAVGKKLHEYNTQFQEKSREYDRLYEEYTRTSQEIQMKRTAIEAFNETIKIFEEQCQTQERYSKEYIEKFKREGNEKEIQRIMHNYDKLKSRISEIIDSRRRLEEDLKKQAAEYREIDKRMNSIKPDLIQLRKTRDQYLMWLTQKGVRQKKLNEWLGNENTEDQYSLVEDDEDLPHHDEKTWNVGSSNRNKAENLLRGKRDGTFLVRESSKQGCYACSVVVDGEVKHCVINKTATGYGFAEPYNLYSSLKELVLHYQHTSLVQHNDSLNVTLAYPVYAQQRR
Chain of VEGFR3 (P35916 25-1363, species assumed): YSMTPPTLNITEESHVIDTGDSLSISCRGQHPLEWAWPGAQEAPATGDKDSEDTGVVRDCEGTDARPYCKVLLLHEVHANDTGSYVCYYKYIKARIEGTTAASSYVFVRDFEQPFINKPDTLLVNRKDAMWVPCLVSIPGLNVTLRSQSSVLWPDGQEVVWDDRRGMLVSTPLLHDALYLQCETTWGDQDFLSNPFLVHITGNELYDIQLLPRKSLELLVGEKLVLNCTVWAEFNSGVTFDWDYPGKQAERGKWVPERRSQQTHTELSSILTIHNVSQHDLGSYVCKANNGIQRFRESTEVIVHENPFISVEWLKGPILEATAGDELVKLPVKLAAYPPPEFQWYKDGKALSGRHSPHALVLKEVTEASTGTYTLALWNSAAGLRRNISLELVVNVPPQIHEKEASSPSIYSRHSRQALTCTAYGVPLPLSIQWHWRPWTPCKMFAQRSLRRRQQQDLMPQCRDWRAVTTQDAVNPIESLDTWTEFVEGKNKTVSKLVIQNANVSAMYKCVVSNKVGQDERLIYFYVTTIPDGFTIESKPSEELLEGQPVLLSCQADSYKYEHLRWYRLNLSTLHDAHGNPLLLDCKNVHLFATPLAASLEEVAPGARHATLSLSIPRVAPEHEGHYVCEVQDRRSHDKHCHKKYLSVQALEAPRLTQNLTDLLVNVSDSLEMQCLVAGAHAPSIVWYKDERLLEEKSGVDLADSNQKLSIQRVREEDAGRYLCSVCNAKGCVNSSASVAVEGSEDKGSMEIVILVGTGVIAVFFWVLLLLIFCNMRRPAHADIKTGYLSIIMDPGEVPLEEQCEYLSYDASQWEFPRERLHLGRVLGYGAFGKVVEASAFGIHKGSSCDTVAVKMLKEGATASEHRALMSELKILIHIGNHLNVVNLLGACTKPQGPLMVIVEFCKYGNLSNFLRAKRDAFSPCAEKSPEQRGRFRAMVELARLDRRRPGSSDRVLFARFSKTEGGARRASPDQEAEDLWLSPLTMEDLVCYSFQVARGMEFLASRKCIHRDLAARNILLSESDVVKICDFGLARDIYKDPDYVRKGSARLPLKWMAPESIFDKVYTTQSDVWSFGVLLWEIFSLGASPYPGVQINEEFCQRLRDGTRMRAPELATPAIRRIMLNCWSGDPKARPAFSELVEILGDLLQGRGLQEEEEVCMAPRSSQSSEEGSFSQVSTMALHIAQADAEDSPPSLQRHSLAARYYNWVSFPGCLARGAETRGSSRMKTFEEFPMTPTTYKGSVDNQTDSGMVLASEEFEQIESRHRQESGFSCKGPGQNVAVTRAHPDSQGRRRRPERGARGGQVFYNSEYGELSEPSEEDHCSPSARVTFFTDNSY
Chain of VEGFR2 (P35968 20-1356, species assumed): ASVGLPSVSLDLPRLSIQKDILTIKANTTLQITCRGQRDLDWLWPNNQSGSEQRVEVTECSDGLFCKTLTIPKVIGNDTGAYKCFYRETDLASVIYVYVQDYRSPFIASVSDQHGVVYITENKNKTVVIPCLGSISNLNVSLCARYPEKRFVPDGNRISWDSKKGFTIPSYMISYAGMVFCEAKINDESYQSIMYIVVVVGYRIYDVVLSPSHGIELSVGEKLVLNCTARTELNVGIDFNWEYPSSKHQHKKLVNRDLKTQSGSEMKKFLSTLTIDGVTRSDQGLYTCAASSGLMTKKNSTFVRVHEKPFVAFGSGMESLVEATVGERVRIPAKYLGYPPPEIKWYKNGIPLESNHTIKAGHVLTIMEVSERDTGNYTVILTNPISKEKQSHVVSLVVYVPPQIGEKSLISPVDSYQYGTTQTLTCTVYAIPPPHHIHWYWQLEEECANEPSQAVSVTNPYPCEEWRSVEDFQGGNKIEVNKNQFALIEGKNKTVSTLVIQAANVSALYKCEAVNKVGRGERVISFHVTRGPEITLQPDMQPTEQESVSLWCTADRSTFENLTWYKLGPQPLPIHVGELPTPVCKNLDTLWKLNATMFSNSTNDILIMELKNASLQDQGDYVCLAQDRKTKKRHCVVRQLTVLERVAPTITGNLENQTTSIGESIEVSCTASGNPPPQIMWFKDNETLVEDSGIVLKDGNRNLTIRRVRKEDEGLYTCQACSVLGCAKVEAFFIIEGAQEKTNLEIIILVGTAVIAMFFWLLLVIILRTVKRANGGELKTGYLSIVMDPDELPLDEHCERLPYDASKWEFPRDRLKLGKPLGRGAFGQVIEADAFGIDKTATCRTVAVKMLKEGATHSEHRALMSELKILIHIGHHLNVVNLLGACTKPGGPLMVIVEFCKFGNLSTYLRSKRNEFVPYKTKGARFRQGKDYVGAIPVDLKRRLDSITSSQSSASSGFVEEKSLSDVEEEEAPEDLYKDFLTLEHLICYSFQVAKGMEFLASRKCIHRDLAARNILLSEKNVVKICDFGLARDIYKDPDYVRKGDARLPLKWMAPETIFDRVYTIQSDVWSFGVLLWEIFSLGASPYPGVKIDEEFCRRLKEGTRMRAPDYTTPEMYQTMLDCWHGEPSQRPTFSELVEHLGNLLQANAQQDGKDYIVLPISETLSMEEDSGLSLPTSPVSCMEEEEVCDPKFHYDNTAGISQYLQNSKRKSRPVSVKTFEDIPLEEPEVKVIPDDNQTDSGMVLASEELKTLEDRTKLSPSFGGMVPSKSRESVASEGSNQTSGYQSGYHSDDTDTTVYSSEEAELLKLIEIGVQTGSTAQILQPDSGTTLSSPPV
Chain of PTEN (P60484 whole entry, species assumed): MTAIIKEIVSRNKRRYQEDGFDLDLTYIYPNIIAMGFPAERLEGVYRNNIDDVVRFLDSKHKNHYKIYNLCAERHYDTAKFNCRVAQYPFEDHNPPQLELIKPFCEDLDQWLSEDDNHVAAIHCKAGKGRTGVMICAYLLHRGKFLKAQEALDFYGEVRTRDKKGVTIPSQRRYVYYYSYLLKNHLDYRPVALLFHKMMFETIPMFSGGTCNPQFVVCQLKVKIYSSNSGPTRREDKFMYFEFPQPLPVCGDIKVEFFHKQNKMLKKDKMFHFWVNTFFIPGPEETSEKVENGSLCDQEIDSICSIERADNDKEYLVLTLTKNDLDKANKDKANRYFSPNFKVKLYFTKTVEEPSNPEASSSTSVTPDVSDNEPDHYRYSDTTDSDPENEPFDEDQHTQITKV
From the text for VEGFR1: The chemical library was run against these assays, as was a repeat of the TIE2 assay from the original data series (Table 2).

On to `CCOP(=S)(OCC)Oc1ccc2c(C)c(Cl)c(=O)oc2c1` [Coumaphos], for which, in the data set with mouse (setting [7]), the “MOUSE Chronic” value was “No effe ct re corded”.
Regarding `O=C1CCC(N2C(=O)c3ccccc3C2=O)C(=O)N1` (stereo not shown) [Thalidomide], in data set [1] (among all 311 compounds tested), the “predicted vascular disruption from VBS rank” value is “moderate vascular disruptor”. In addition, the VBS in data set [1] (summed activity across 23 assays, 6 assay targets, reference antiangiogenic compounds) was determined as 1.76. In the data set on CCL2 (coculture of peripheral blood mononuclear cells and endothelial cells), the “CCL2 down-regulation LEC” value amounted to 0.625 µM. In the data set with CCL2 (lowest effective concentration), the “CCL2 down-regulation LEC” value was determined as 0.625 µM. Also, the “effect on CXCL10 signal assay” value in the data set with CXCL10 was “Neither compound affected”. Further, the “uPAR up-regulation, effective concentration” value in the data set with uPAR (endothelial cells) stood at 2.5 µM. In addition, the “uPAR up- and down-regulation LEC” value in the data set with uPAR (lowest effective concentration) amounted to 2.5 µM. In addition, the “PAI-1 up-regulation, effective concentration” value in the data set on PAI-1 (fibroblasts) turned out to be 40 µM. For the same compound, the “PAI-1 up- and down-regulation LEC” value in the data set with PAI-1 (lowest effective concentration) is given as 40 µM. In addition, in data set [2], the “inhibition of tube formation” value is on record as ~ 30%. In addition, on TIE2, the AC50 (commonly the midpoint of the concentration-response curve, whichever way the signal moves) was above 50 µM and the “AC50 in the TIE2 assay (in words)” value was “Neither compound affected the CXCL10 signal assay or produced an AC50 in the TIE2 assay”.
Take `O=S(=O)(O)C(F)(F)C(F)(F)C(F)(F)C(F)(F)C(F)(F)C(F)(F)C(F)(F)C(F)(F)F` [Perfluorooctanesulfonic acid]: the VBS in [1] (ToxCast chemicals of Table 2) is listed as 3.48. Also, the AC50 on PTEN came out at 17 µM; at VEGFR1 it was 8.2 µM; at VEGFR2, 50 µM; at VEGFR3 it was 8 µM; on TIE2 (setting [8]) it was 4.43 µM. For the same compound, the “PI3Ka AC50” value on PI3Ka is recorded as 6.5 µM.
Turning to `S=C([S-])NCCNC(=S)[S-].[Mn+2]` [Maneb], the VBS in data set [1] (ToxCast chemicals of Table 2) amounted to 4.69. The half-maximal activity concentration (AC50) at PTEN stood at 0.9 µM; at EphB2 it was 23 µM; on VEGFR1, 4.1 µM; on VEGFR2 it was 31 µM; at VEGFR3, 12 µM; at TIE2 (setting [8]) it was 8.08 µM.
Take `CO[C@@H]1[C@H](OC(=O)NC(=O)CCl)CC[C@]2(CO2)[C@H]1[C@@]1(C)O[C@@H]1CC=C(C)C` [TNP-470, O-[chloroacetyl-carbamoyl]fumagillol]: in data set [3], the “effect on VEGF expression and VEGFR2 phosphorylation” value is on record as “significant decrease”. For the same compound, the pregnancy outcome with murine pregnancy was “spontaneous resorption and intrauterine growth restriction”.
Take `CCC(C)(NC(=O)c1cc(Cl)c(C)c(Cl)c1)C(=O)CCl` (stereo not shown) [Zoxamide]: the “RAT/RABBIT Developmental” value in the data set with rat/rabbit is on record as “No effe ct recorded”. In the data set with rat [4], the “RAT Chronic” value is on record as “No effe ct re corded”. Further, the “MOUSE Chronic” value in the data set with mouse (mouse, in vivo) is on record as “LungTumors; Lung_ AnyLesion, PreneoplasticL esion, Neoplasti cLesion; Tumorigen”. Moreover, the “RAT Multigenerational” value in the data set with rat [5] (rat, in vivo) was “No effe ct recorded”.
As to `C=CCOC(Cn1ccnc1)c1ccc(Cl)cc1Cl` (stereo not shown) [Imazalil], the “VTKB Results (peer-reviewed in vivo studies)” value (“VTKB Results” below) with various species (setting [9]) is given as “mammalian developmental toxicity”.
`CCc1ccc(C(=O)NN(C(=O)c2cc(C)cc(C)c2)C(C)(C)C)cc1` [Tebufenozide]: in the data set with mouse (setting [7]), the “MOUSE Chronic” value is given as “Spleen_ AnyLesion”.
Mancozeb: in [1] (ToxCast chemicals of Table 2), the VBS stood at 3.00. Besides, the AC50 is 0.23 µM at PTEN; 21 µM on EphB2; 19 µM on VEGFR1; 5.9 µM at VEGFR2; 1.3 µM at VEGFR3; 10.4 µM on TIE2 (setting [8]). Also, on PI3Ka, the “PI3Ka AC50” value was 20 µM.
For the compound `N#Cc1nn(-c2c(Cl)cc(C(F)(F)F)cc2Cl)c(N)c1[S+]([O-])C(F)(F)F` (stereo not shown) [Fipronil], the “RAT/RABBIT Developmental” value with rat/rabbit is given as “No effe ct recorded”. In addition, in the data set with rat [4], the “RAT Chronic” value was “KidneyNephropath y; Kidney_ AnyLesion; ThyroidGland_ AnyLesion, PreneoplasticL esion, Neoplasti cLesion; ThyroidProliferativeLesions; ThyroidTumors; Tumorigen”. For the same compound, the “MOUSE Chronic” value with mouse (mouse, in vivo) is given as “LiverHypertrophy; LiverNec rosis; LiverProli ferativeLes ions; Liver_ AnyLes ion, PreneoplasticL esion”. Moreover, the “RAT Multigenerational” value in the data set on rat [5] (rat, in vivo) was “Epididymis; Fertili ty; LitterSize; LiveBir thPND1; Liver; Mating; Ovary; Thyroid; ViabilityPND4”. Further, the “VTKB Results” value with various species (in vivo) was “Developmental Neurotoxi city: Zebrafish (Stehr e t al. 2006)”.
For the compound `CC(C)N1C(=O)c2ccccc2NS1(=O)=O` [Bentazone], in the data set with rat [5] (setting [7]), the “RAT Multigenerational” value is given as “Kidney; Liver”.
In data set [1] (ToxCast chemicals of Table 2), `O=C(O)C(F)(F)C(F)(F)C(F)(F)C(F)(F)C(F)(F)C(F)(F)C(F)(F)F` [Perfluorooctanoic acid] registered a VBS of 3.04. In the data set with various species (setting [9]), the “VTKB Results” value is “mammalian developmental toxicity”. Moreover, on TIE2, half-maximal activity (AC50) was put at 31.9 µM.
Take Metiram-zinc: in data set [1] (ToxCast chemicals of Table 2), the VBS stood at 4.35. The half-maximal activity concentration (AC50) came to 12 µM on PTEN; 6.6 µM on VEGFR1; 41 µM on VEGFR2; 22 µM at VEGFR3; 15 µM at TIE2 (setting [8]). Also, the “PI3Ka AC50” value at PI3Ka was determined as 29 µM.
Consider `Clc1cc2c(cc1Cl)Oc1cc(Cl)c(Cl)cc1O2` [TCDD, 2,3,7,8-tetrachlorodibenzo-p-dioxin], for which, in data set [6], the placental vascular remodeling entry is listed as “suppressed”.
Consider Abamectin, for which the VBS in data set [1] (ToxCast chemicals of Table 2) is on record as 5.19. The results for the half-maximal activity concentration (AC50) on EphB2 and on TIE2 (setting [8]) were 17 µM and 38.8 µM, respectively. In addition, the “PI3Ka AC50” value on PI3Ka is reported as 6.4 µM.
In turn, `O=C(O)C1(C(=O)Nc2ccc(Cl)cc2Cl)CC1` [Cyclanilide] returned a VBS in data set [1] (ToxCast chemicals of Table 2) of 0.21. Further, the AC50 on PTEN came to 3.9 µM; on EphB2, 50 µM.
With Emamectin benzoate, the VBS in data set [1] (ToxCast chemicals of Table 2) and in [1] (pVDCs with rat-specific effects) was 2.91 each time. Besides, the Developmental phenotype result in the data set with pregnant rats is “Fetal weight reduction; skeletal: appendicular, axial, cranial”. Moreover, the AC50 worked out at 2.1 µM at PTEN and 21 µM on EphB2. Besides, the “PI3Ka AC50” value on PI3Ka was found to be 7.9 µM.
